Measured values taken from patent US20110152313A1 (MACQUARIE UNIVERSITY, priority 2008, published 2011).

Tests used:
Assay in all cases: kinase binding screen (kinase-tagged T7 phage, qPCR), % Ctrl
CAMK4 = molecular target: T1, CAMK4 (Homo sapiens, UniProt Q16566)
T1 sequence (Q16566 1-473): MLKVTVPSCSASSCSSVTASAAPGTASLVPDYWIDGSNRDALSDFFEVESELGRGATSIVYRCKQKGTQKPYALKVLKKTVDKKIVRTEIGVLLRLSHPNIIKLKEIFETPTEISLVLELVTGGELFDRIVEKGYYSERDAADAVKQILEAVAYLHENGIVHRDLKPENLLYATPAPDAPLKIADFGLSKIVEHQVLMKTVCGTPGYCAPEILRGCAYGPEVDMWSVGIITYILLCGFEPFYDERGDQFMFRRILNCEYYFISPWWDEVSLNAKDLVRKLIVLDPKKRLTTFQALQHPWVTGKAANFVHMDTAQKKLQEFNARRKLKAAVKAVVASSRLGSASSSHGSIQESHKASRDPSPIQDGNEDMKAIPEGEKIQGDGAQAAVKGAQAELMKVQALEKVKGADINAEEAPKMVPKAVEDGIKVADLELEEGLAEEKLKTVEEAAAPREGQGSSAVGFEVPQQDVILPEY
Summary of the method: (§1)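 Kinase-tagged T7 phage lysates were prepared in E. coli (MOI 0.4, 32° C until lysis), then exposed to ligand-bearing beads and test compound at a fixed concentration. Kinase remaining bound was eluted and measured by qPCR.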

DYRK1A = DYRK1A (Homo sapiens, UniProt Q13627)
Summary of the method: as §1

MAP3K15 = molecular target: T2, MAP3K15 (Homo sapiens, UniProt Q6ZN16)
T2 sequence (Q6ZN16 1-1313): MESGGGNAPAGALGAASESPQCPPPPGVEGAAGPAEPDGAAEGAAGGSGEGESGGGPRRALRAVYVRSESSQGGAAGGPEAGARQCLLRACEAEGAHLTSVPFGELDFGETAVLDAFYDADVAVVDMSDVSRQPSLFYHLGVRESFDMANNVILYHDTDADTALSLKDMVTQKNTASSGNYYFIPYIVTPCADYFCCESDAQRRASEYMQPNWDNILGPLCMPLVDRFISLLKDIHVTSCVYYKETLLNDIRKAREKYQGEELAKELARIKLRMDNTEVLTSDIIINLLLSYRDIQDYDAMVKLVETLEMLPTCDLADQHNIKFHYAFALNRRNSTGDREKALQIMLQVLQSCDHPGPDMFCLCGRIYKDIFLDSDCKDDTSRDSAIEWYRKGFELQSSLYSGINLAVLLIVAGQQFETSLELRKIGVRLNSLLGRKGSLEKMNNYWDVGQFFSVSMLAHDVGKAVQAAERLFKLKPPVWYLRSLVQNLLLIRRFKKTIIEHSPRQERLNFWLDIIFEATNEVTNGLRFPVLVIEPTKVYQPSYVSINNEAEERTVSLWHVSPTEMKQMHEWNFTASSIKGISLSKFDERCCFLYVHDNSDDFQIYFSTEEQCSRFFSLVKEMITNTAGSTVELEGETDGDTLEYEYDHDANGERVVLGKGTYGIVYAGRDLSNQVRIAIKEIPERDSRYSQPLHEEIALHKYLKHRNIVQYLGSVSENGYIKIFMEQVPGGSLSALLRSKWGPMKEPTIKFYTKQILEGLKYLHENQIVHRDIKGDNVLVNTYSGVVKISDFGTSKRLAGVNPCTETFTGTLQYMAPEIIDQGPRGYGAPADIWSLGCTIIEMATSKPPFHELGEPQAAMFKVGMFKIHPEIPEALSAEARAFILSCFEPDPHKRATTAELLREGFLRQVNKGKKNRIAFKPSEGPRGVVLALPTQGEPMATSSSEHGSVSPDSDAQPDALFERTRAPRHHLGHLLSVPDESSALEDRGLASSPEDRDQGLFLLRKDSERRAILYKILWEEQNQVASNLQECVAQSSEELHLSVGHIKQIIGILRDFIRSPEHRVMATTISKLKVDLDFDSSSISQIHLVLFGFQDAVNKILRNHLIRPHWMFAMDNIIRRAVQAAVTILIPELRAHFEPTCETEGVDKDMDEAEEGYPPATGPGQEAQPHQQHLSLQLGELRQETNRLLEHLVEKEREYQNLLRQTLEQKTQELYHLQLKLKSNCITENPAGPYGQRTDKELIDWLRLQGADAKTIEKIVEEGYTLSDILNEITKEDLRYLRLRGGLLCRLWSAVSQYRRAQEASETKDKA
Summary of the method: as §1

PRKCE = molecular target: T3, PRKCE (Homo sapiens, UniProt Q02156)
T3 sequence (Q02156 1-737): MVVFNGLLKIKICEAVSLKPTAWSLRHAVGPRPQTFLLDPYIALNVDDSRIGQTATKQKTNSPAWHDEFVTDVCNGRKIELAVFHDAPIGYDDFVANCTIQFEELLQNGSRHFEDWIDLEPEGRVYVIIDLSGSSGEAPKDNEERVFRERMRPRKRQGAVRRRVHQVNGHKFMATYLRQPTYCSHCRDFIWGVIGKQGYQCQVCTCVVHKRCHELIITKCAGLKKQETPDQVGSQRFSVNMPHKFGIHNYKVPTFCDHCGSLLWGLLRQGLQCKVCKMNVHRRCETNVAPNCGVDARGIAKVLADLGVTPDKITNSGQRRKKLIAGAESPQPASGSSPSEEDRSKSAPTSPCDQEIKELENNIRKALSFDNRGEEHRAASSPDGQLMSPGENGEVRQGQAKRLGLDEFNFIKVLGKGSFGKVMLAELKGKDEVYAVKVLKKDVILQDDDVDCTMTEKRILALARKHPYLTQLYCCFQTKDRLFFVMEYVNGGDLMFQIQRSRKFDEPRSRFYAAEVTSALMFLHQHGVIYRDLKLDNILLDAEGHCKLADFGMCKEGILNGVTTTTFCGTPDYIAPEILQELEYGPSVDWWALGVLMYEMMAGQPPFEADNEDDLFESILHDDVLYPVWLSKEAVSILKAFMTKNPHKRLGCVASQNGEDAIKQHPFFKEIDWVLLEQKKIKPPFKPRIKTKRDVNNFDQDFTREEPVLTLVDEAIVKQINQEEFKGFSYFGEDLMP
Summary of the method: as §1

Nc1nc2c(-c3ccccn3)nccc2[nH]1 [drawing 35, 4-(pyrid-2-yl)-1H-imidazo[4,5-c]pyridin-2-amine]
remaining activity at 1 µM (CAMK4): 100%
remaining activity at 1 µM (DYRK1A): 36%
remaining activity at 1 µM (MAP3K15): 40%
remaining activity at 1 µM (PRKCE): 20%

Nc1nc2c(-c3cc(Br)c(Br)[nH]3)nccc2[nH]1 [Ageladine A, ageladine A, reference compound]
remaining activity at 1 µM (CAMK4): 100%
remaining activity at 10 µM (CAMK4; 10 μM): 97%
remaining activity at 1 µM (DYRK1A): 38%
remaining activity at 10 µM (DYRK1A; 10 μM): 4.7%
remaining activity at 1 µM (MAP3K15): 100%
remaining activity at 10 µM (MAP3K15; 10 μM): 78%
remaining activity at 1 µM (PRKCE): 54%
remaining activity at 10 µM (PRKCE; 10 μM): 100%

Nc1nc2c(-c3cnc4ccccc4c3)nccc2[nH]1 [drawing 36, 4-(quinolin-3-yl)-1H-imidazo[4,5-c]pyridin-2-amine]
remaining activity at 1 µM (CAMK4): 100%
remaining activity at 1 µM (DYRK1A): 51%
remaining activity at 1 µM (MAP3K15): 94%
remaining activity at 1 µM (PRKCE): 100%
